# Assay results as given in US20240376126A1, “PRMT5 INHIBITOR AND THE USE THEREOF” (CYTOSINLAB THERAPEUTICS CO., LTD., priority 2022, published 2024).
# Like-named read-outs stand apart in the source and are kept apart here.
# Legend:
# [1] = tested on: HCT116-MTAP-KO (MTAP null) cells; experiment: Proliferation inhibition of HCT116 MTAP-KO cells in vitro (CellTiter Glo, 6 days); type: cell-based; conditions: read-out: Cell proliferation inhibition rate HCT116-MTAP null IC50 (nm)
# Source text: (§1) Biological Test Example 2 Proliferation Inhibition of HCT116 and HCT116 MTAP-KO Cells In Vitro
# (§2) HCT116 cell line was purchased from the Chinese Academy of Sciences Cell Bank, and the MTAP gene was knocked out by CRISPR/Cas9 technology to obtain HCT116-MTAP-KO cell line.
# (§3) McCoy's 5A medium (Gibco, catalog No. 16600082), fetal bovine serum (Gibco, catalog No. 10099141C), penicillin-streptomycin double antibody (Gibco, catalog No. 15140122), pancreatic enzyme (Gibco, catalog No. 25200056), CellTiter Glo assay kit (Promega, catalog No. G7572), 384-well transparent flat-bottomed black walled cell culture plate (Corning, catalog No. 3764), ultra micro sampler (Tecan, catalog No. D300e), Multimode reader (Biotek, catalog No. SynergyHTX)
# (§4) • 1. Cell culture: HCT116 and HCT116-MTAP-KO cells were cultured in McCoy'5A medium+10% fetal bovine serum+1% penicillin-streptomycin double antibody; to ensure that they were always in the logarithmic growth phase and the cell viability greater than 95%. • 2. Compound concentration gradient preparation: The compound to be tested was added to a 384-well plate using an ultra micro sampler, starting from 30 μM (HCT116 cells) or 3 μM (HCT116-MTAP-KO cells), and diluted with DMSO at 3 times for a total of 9 concentrations and set up three duplicate wells. • 3. Treatment of cells with compounds: Trypsin-digested HCT116 or HCT116-MTAP-KO cell suspension was added to the 384-well plates spotted with the compounds to be tested at 40 μL per well, i.e., 100 cells per well, and the final concentration of DMSO was 0.4%. The cell culture plate was incubated at 37° C. in a 5% CO2 incubator for 6 days. • 4. Detection: 20 μL of CellTiter Glo reagent was added to each well of the cell culture plate and incubated at room temperature for 30 minutes. A multimode reader was used to detect the luminescence signal at […]. • 5. Data analysis:
# (§5) The data was fitted with GraphPad Prism 8.0 software using a four parameter inhibitor-reaction model to obtain the […] (half inhibitory concentration) of the test compounds.
# (§6) The first column represents cell proliferation inhibition rate HCT116 MTAP WT IC50 (nm), and the second column represents cell proliferation inhibition rate HCT116-MTAP null IC50 (nm): […]
# HCT116 MTAP WT cells = experiment: Proliferation inhibition of HCT116 cells in vitro (CellTiter Glo, 6 days); type: cell-based; conditions: read-out: Cell proliferation inhibition rate HCT116 MTAP WT IC50 (nm)
# Source text: as §1, §2, §3, §4, §5, §6
Compound,"IC50 ([1]; HCT116-MTAP null, 144 h)","IC50 (HCT116 MTAP WT cells; Homo sapiens, HCT-116, 144 h)",IC50 [1],IC50 (HCT116 MTAP WT cells),IC50 ([1]; 144 h)
Cn1ncc(F)c1N(Cc1cn2cc(C(F)(F)F)ccc2n1)C(=O)c1ccc2nc(N)c3cnn(C)c3c2c1 [Example 115],< 100 nM,100 to 1000 nM,,,
CCN(C(=O)c1ccc2nc(N)c3c(cnn3C)c2c1)C(C)c1cc2ccccn2n1 (centres unmarked) [Example 117],100 to 1000 nM,1000 to 10000 nM,,,
"CCN(C(=O)c1ccc2nc(N)c3c(c2c1)COC3)C(C)c1cc2ccccn2n1 (centres unmarked) [Example 119, 4-Amino-N-ethyl-N-(1-(pyrazolo[1,5-a]pyridin-2-yl)ethyl)-1,3-dihydrofurano[3,4-c]quinolin-8-carboxamide]",< 100 nM,1000 to 10000 nM,,,
Cc1cc2cc(C(=O)N(Cc3cc4ccccn4n3)C(C)c3ncccn3)ccc2nc1N (centres unmarked) [Example 120],< 100 nM,1000 to 10000 nM,,,
Cc1cc2cc(C(=O)N(Cc3cc4ccccn4n3)C(C)c3cccc(F)n3)ccc2nc1N (centres unmarked) [Example 122],< 100 nM,1000 to 10000 nM,,,
C[C@H]1COC[C@@H](c2cc3ccccn3n2)N1C(=O)c1cc2c(cc1F)nc(N)c1cnn(C)c12 [Example 123],< 100 nM,100 to 1000 nM,,,
C[C@H]1COC[C@@H](c2cc3ccccn3n2)N1C(=O)c1cc2c3c(c(N)nc2cc1F)COC3 [Example 124],< 100 nM,1000 to 10000 nM,,,
CC(c1ncccn1)N(Cc1nc2ccccc2[nH]1)C(=O)c1ccc2nc(N)c3c(c2c1)CCC3 (centres unmarked) [Example 128],100 to 1000 nM,100 to 1000 nM,,,
COCC(C1CC1)N(Cc1nc2ccccc2[nH]1)C(=O)c1ccc2nc(N)c3c(c2c1)CCC3 (centres unmarked) [Example 129],< 100 nM,1000 to 10000 nM,,,
CC(C)CN(Cc1nc2ccc(C(F)(F)F)cc2[nH]1)C(=O)c1ccc2nc(N)c3c(c2c1)COC3 [Example 131],100 to 1000 nM,1000 to 10000 nM,,,
CC(C)CN(Cc1nc2cc(S(F)(F)(F)(F)F)ccc2[nH]1)C(=O)c1cc2c(cc1F)nc(N)c1cnn(C)c12 [Example 133],< 100 nM,100 to 1000 nM,,,
CCN(Cc1nc2ccccc2[nH]1)C(=O)c1ccc2nc(N)c3c(c2c1)COC3C (centres unmarked) [Example 135],100 to 1000 nM,1000 to 10000 nM,,,
CC(C)CN(Cc1nc2ccccc2[nH]1)C(=O)c1ccc2nc(N)c3c(c2c1)COC3C (centres unmarked) [Example 136],100 to 1000 nM,1000 to 10000 nM,,,
Cc1ncc2c(N)nc3cc(F)c(C(=O)N(Cc4nc5ccc(S(F)(F)(F)(F)F)cc5[nH]4)CC(C)C)cc3n12 [Example 139],< 100 nM,1000 to 10000 nM,,,
Cc1ncc2c(N)nc3cc(F)c(C(=O)N(Cc4nc5ccc(C(F)(F)F)cc5[nH]4)c4ccnn4C)cc3n12 [Example 142],,,100 to 1000 nM,1000 to 10000 nM,
COCC(C1CC1)N(Cc1nc2ccccc2s1)C(=O)c1ccc2nc(N)c(C)cc2c1 (centres unmarked) [Example 146],,1000 to 10000 nM,,,100 to 1000 nM
COCC(C1CC1)N(Cc1nc2cc(Br)ccc2s1)C(=O)c1ccc2nc(N)c(C)cc2c1 (centres unmarked) [Example 151],100 to 1000 nM,1000 to 10000 nM,,,

# More lines, main results first:
"IC50 ([1]; HCT116-MTAP null, 144 h)","IC50 (HCT116 MTAP WT cells; Homo sapiens, HCT-116, 144 h)",IC50 [1],IC50 (HCT116 MTAP WT cells),Compound,IC50 ([1]; 144 h)
< 100 nM,1000 to 10000 nM,,,CC(c1ncccn1)N(Cc1cc2ccccn2n1)C(=O)c1ccc2nc(N)c3c(c2c1)CCC3 (centres unmarked) [Example 116],
100 to 1000 nM,1000 to 10000 nM,,,CCN(Cc1cc2ccccn2n1)C(=O)c1ccc2nc(N)c3c(cnn3C)c2c1 [Example 118],
100 to 1000 nM,1000 to 10000 nM,,,CCN(Cc1cc2ccccn2n1)C(=O)c1ccc2nc(N)c3c(c2c1)COC3C (centres unmarked) [Example 121],
< 100 nM,1000 to 10000 nM,,,Cc1nn(C)cc1N(Cc1cc2ccc(C(F)(F)F)cn2n1)C(=O)c1ccc2nc(N)c3c(c2c1)COC3 [Example 126],
< 100 nM,1000 to 10000 nM,,,CC(C)N(Cc1nc2ccccc2[nH]1)C(=O)c1ccc2cc(N)c3c(c2c1)CCC3 [Example 130],
< 100 nM,1000 to 10000 nM,,,CCN(Cc1nc2ccc(C(F)(F)F)cc2[nH]1)C(=O)c1ccc2nc(N)c3c(c2c1)COC3C (centres unmarked) [Example 134],
100 to 1000 nM,1000 to 10000 nM,,,CCN(Cc1nc2cc(C(F)(F)F)ccc2[nH]1)C(=O)c1cc2c(cc1F)nc(N)c1cnc(C)n12 [Example 140],
100 to 1000 nM,1000 to 10000 nM,,,COCC(C1CC1)N(Cc1nc2cc(C(F)(F)F)ccc2s1)C(=O)c1ccc2nc(N)c(C)cc2c1 (centres unmarked) [Example 150],
